Test results taken from patent US11841369B2, “Method for improving quality of therapeutic cell through real-time glutathione measurement” (CELL2IN, INC., priority 2017, dated 2023).

Experiments:
hUC-MSCs [1] = test: FreSH-Tracer-based glutathione regeneration capacity (GRC) after diamide; design: species or system human; conditions: hUC-MSCs subcultured three times with AA2G 250 μg/mL, low concentration of diamide, vs naive cell group
Method: (§1) In addition, GH is calculated as the coefficient of variation or robust coefficient of variation of cellular FR. GRC refers to a value obtained by real-time monitoring of FR after living cells are treated with an oxidizing agent, as calculated by dividing a value obtained by subtracting AUC of a group treated with 0.1-100 mM N-ethylmaleimide (NEM) from FR AUC of an oxidizing agent (diamide, H2O2, etc.)-treated group by a value obtained by subtracting the AUC of NEM-treated group from AUC of the untreated control, and multiplying the resulting value by 100. The FR of the NEM-treated group is a value for increasing the sensitivity of a GRC value by treating it as the blank value of the FR of the cells of interest. […] To remove the MitoFreSH-Tracer from the medium before measurement, the medium was exchanged with fresh 10 mM HEPES-containing HBSS, and a fluorescence image was obtained using a confocal imaging system, Operetta. By comparing GSH levels quantified from control cells not treated with RSL3 or control cells before treated with RSL3, the distribution of GSH expression-changed cells was calculated. Based on the point where the distribution histogram is divided into two peaks, the cells were divided into GSH^High cells (right peak) and GSH^Low cells (left peak), and then a ratio of corresponding cells was expressed as a percentage (%). […]

hUC-MSCs [2] = test: CFU-F assay of hUC-MSCs; assay type: cell-based, human; conditions: 125 or 250 μg/mL AA2G, three days
Method: The inventors observed an effect of the material on stem cells by treating each stem cells with a material for enhancing a glutathione evaluation parameter. When hUC-MSCs were subcultured in a L-AA2G-containing medium, CFU-F, migration capacity, and an anti-inflammatory effect were observed. A CFU-F assay (n=3) was performed by treating hUC-MSCs with 125 or 250 μg/mL of AA2G for three days. As shown in FIGS. 16A and 16B, it was confirmed that, when AA2G was treated, CFU-F increased. In addition, as hUC-MSCs were treated with 125 or 250 μg/mL of AA2G for three days, PDGF-AA-induced migration capacity (n=3) was analyzed. As shown in FIGS. 17A and 17B, it was confirmed that the migration capacity was increased by AA2G treatment. In addition, the reduction in T cell proliferation, a reduction in T cell differentiation, and the promotion of Treg cell differentiation were observed by treating hUC-MSCs with 125 or 250 μg/mL of AA2G for three days. […] Meanwhile, hUC-MSCs were cultured with a glutathione precursor such as γ-glutamyl cysteine (GGC, 0.1, 0.25, and 0.5 mM). A CFU-F assay (n=3) was performed by treating hUC-MSCs with each concentration of GGC for 2 hours. […] In addition, SDF1α and PDGF-AA-induced migration capacities (n=3) were analyzed for hUC-MSCs without treatment with GGC, and SDF1α- and PDGF-AA-induced migration abilities (n=3) were analyzed by treating hUC-MSCs with the increasing concentrations of GGC. STI571 was used as a PDGFR kinase inhibitor. As shown in FIGS. 20A to 20C, it was confirmed that, according to an increase in GGC treatment concentration, SDF1α- and PDGF-AA-induced migration capacities were enhanced. A CFU-F assay (n=3) was performed by treating hUC-MSCs with 0.2, 1, 2, and 4 μM ferrostatin-1 and 0.1, 0.5, 1, and 2 μM liproxstatin-1 for 24 hours.

hUC-MSCs [3] = test: Oxidative stress resistance capacity (ORC) analysis with RSL3; assay type: cell-based, human; conditions: hUC-MSCs subcultured three times with AA2G 250 μg/mL, vs naive cell group (NC)
Method: as §1

Structure (SMILES): O=C1O[C@H]([C@@H](O)CO)C(O)=C1O[C@H]1O[C@H](CO)[C@@H](O)[C@H](O)[C@H]1O [AA2G, ascorbic acid 2-glucoside]
- FreSH-Tracer-based GRC (hUC-MSCs [1]): increased
- CFU-F (hUC-MSCs [2]): increased
- FreSH-Tracer-based ORC (GSH^High cells) (hUC-MSCs [3]): higher
